In the NIST ThermoML archive (doi:10.1016/j.jct.2018.04.019):
Numbers after ± are expanded uncertainties.

Conditions: Liquid; for speed of sound: Frequency=5 MHz, Pulse-echo method; for mass density: Vibrating tube method

CCCCCCCCC [nonane]
Conditions	mass density [kg/m3]	speed of sound [m/s]
283.13 K, 1090 kPa	–	1273.9 ± 1.8
283.13 K, 30100 kPa	–	1432.4 ± 1.8
283.13 K, 59970 kPa	–	1563.7 ± 1.9
283.13 K, 90370 kPa	–	1676.8 ± 2
283.13 K, 120250 kPa	–	1774.7 ± 2.1
283.13 K, 149990 kPa	–	1862.2 ± 2.2
283.13 K, 180130 kPa	–	1943.2 ± 2.3
283.13 K, 210070 kPa	–	2017.3 ± 2.4
283.13 K, 240000 kPa	–	2086.3 ± 2.5
283.13 K, 270320 kPa	–	2151.8 ± 2.5
283.13 K, 300010 kPa	–	2212.5 ± 2.6
283.13 K, 330300 kPa	–	2271 ± 2.7
283.13 K, 360220 kPa	–	2326 ± 2.8
283.13 K, 389880 kPa	–	2378.1 ± 2.9
283.15 K, 1010 kPa	726.22 ± 0.62	–
283.15 K, 5020 kPa	729.22 ± 0.63	–
283.15 K, 5040 kPa	729.17 ± 0.63	–
283.15 K, 10020 kPa	732.75 ± 0.64	–
283.15 K, 15020 kPa	736.14 ± 0.66	–
283.15 K, 20040 kPa	739.41 ± 0.68	–
283.15 K, 25020 kPa	742.54 ± 0.7	–
283.15 K, 30040 kPa	745.52 ± 0.72	–
283.15 K, 35050 kPa	748.45 ± 0.74	–
283.15 K, 40010 kPa	751.23 ± 0.77	–
283.15 K, 45050 kPa	753.99 ± 0.79	–
283.15 K, 50010 kPa	756.62 ± 0.81	–
283.15 K, 55020 kPa	759.19 ± 0.84	–
283.15 K, 60030 kPa	761.66 ± 0.87	–
283.15 K, 65010 kPa	764.08 ± 0.89	–
298.15 K, 1020 kPa	714.83 ± 0.62	–
298.15 K, 1040 kPa	–	1212.6 ± 1.8
298.15 K, 5010 kPa	718.08 ± 0.63	–
298.15 K, 5040 kPa	718.12 ± 0.63	–
298.15 K, 10030 kPa	721.94 ± 0.65	–
298.15 K, 15060 kPa	725.7 ± 0.66	–
298.15 K, 20040 kPa	729.17 ± 0.68	–
298.15 K, 25040 kPa	732.54 ± 0.7	–
298.15 K, 30010 kPa	735.76 ± 0.73	–
298.15 K, 30040 kPa	–	1380.2 ± 1.8
298.15 K, 35050 kPa	738.87 ± 0.75	–
298.15 K, 40010 kPa	741.88 ± 0.78	–
298.15 K, 45060 kPa	744.79 ± 0.8	–
298.15 K, 50010 kPa	747.56 ± 0.83	–
298.15 K, 55040 kPa	750.31 ± 0.85	–
298.15 K, 60020 kPa	752.92 ± 0.88	–
298.15 K, 60130 kPa	–	1518 ± 1.9
298.15 K, 65010 kPa	755.48 ± 0.91	–
298.15 K, 90110 kPa	–	1633.4 ± 1.9
298.15 K, 120200 kPa	–	1734.7 ± 2
298.15 K, 150120 kPa	–	1824.9 ± 2.1
298.15 K, 180370 kPa	–	1907.9 ± 2.2
298.15 K, 210410 kPa	–	1983.7 ± 2.4
298.15 K, 240020 kPa	–	2053.1 ± 2.4
298.15 K, 270230 kPa	–	2119.6 ± 2.5
298.15 K, 300100 kPa	–	2181.4 ± 2.6
298.15 K, 330260 kPa	–	2240.5 ± 2.7
298.15 K, 360030 kPa	–	2296 ± 2.8
298.15 K, 390030 kPa	–	2349.2 ± 2.8
323.14 K, 1020 kPa	–	1112.3 ± 1.8
323.14 K, 30050 kPa	–	1297.8 ± 1.8
323.14 K, 60210 kPa	–	1445.2 ± 1.8
323.14 K, 90150 kPa	–	1566.7 ± 1.9
323.14 K, 120240 kPa	–	1672.3 ± 2
323.14 K, 150130 kPa	–	1765.5 ± 2.1
323.14 K, 179980 kPa	–	1850.1 ± 2.2
323.14 K, 210410 kPa	–	1929.2 ± 2.3
323.14 K, 239980 kPa	–	2000.4 ± 2.4
323.14 K, 270330 kPa	–	2068.7 ± 2.5
323.14 K, 300070 kPa	–	2131.6 ± 2.6
323.14 K, 330050 kPa	–	2191.3 ± 2.6
323.14 K, 360040 kPa	–	2247.9 ± 2.7
323.14 K, 390060 kPa	–	2301.7 ± 2.8
323.15 K, 1030 kPa	695.27 ± 0.62	–
323.15 K, 5030 kPa	699.04 ± 0.63	–
323.15 K, 5060 kPa	699.09 ± 0.63	–
323.15 K, 10050 kPa	703.57 ± 0.65	–
323.15 K, 15020 kPa	707.81 ± 0.67	–
323.15 K, 20050 kPa	711.84 ± 0.69	–
323.15 K, 25020 kPa	715.63 ± 0.72	–
323.15 K, 30020 kPa	719.22 ± 0.74	–
323.15 K, 35080 kPa	722.75 ± 0.77	–
323.15 K, 40050 kPa	726.09 ± 0.79	–
323.15 K, 45060 kPa	729.27 ± 0.82	–
323.15 K, 50030 kPa	732.36 ± 0.85	–
323.15 K, 55050 kPa	735.35 ± 0.88	–
323.15 K, 60010 kPa	738.19 ± 0.91	–
323.15 K, 65010 kPa	741.02 ± 0.94	–
348.14 K, 1040 kPa	–	1017.2 ± 1.8
348.14 K, 1060 kPa	–	1018.1 ± 1.8
348.14 K, 30150 kPa	–	1220.8 ± 1.8
348.14 K, 59870 kPa	–	1375.2 ± 1.8
348.14 K, 90060 kPa	–	1503.8 ± 1.8
348.14 K, 120210 kPa	–	1613.8 ± 1.9
348.14 K, 150180 kPa	–	1710.4 ± 2
348.14 K, 180310 kPa	–	1798.1 ± 2.2
348.14 K, 210230 kPa	–	1877.8 ± 2.3
348.14 K, 240360 kPa	–	1951.8 ± 2.4
348.14 K, 269990 kPa	–	2019.2 ± 2.5
348.14 K, 300420 kPa	–	2084.3 ± 2.5
348.14 K, 330170 kPa	–	2144.5 ± 2.6
348.14 K, 360170 kPa	–	2202.2 ± 2.7
348.14 K, 390070 kPa	–	2256.5 ± 2.8
348.15 K, 1010 kPa	675.18 ± 0.63	–
348.15 K, 5030 kPa	679.76 ± 0.64	–
348.15 K, 5040 kPa	679.76 ± 0.64	–
348.15 K, 10030 kPa	685 ± 0.66	–
348.15 K, 15020 kPa	689.84 ± 0.68	–
348.15 K, 20040 kPa	694.44 ± 0.7	–
348.15 K, 25050 kPa	698.79 ± 0.73	–
348.15 K, 30030 kPa	702.84 ± 0.75	–
348.15 K, 35050 kPa	706.74 ± 0.78	–
348.15 K, 40020 kPa	710.4 ± 0.81	–
348.15 K, 45070 kPa	714.01 ± 0.84	–
348.15 K, 50040 kPa	717.37 ± 0.87	–
348.15 K, 55050 kPa	720.67 ± 0.9	–
348.15 K, 60000 kPa	723.79 ± 0.94	–
348.15 K, 65040 kPa	726.84 ± 0.97	–
373.14 K, 1020 kPa	–	924.94 ± 1.9
373.14 K, 30120 kPa	–	1147.9 ± 1.8
373.14 K, 60040 kPa	–	1312.4 ± 1.7
373.14 K, 90420 kPa	–	1447 ± 1.8
373.14 K, 120190 kPa	–	1559.5 ± 1.9
373.14 K, 150200 kPa	–	1659 ± 2
373.14 K, 180540 kPa	–	1749 ± 2.1
373.14 K, 210010 kPa	–	1829.3 ± 2.2
373.14 K, 240370 kPa	–	1905.5 ± 2.3
373.14 K, 270130 kPa	–	1974.7 ± 2.4
373.14 K, 300130 kPa	–	2040.3 ± 2.5
373.14 K, 330240 kPa	–	2102.3 ± 2.6
